Experimental findings from patent US9169237B1, “Antiprotozoal amidine compounds” (Medi Synergics, LLC, priority 2014, dated 2015) are described below.

The experiment concerns T. brucei brucei. In words: T. brucei brucei growth inhibition assay. The experiment is classed as cell-based, Trypanosoma brucei brucei clone 427-221a (bloodstream forms). To be noted: Trypanosoma brucei; bloodstream forms, T. brucei brucei clone 427-221a; 40 hours at 37° C.; 0.5% DMSO; ATP-bioluminescence; read-out: IC50 (μM) (95% Confidence Intervals). As to the method:
The growth inhibition assay for T. brucei brucei was conducted as described previously by Z. B. Mackey et al (Kenny K. H. Ang, Joseline Ratnam, Jiri Gut, Jennifer Legac, Elizabeth Hansell, Zachary B. Mackey, Katarzyna M. Skrzypczynska, Anjan Debnath, Juan C. Engel, Philip J. Rosenthal, James H. McKerrow, Michelle R. Arkin, Adam R. Renslo (2011) “Mining a Cathepsin Inhibitor Library for New Antiparasitic Drug Leads”, PLoS Neglected Tropical Diseases, 5(5):e1023). Bloodstream forms of the monomorphic T. brucei brucei clone 427-221a were grown in complete HMI-9 medium containing 10% FBS, 10% Serum Plus medium (Sigma Inc., St. Louis, Mo., USA), 50 U/mL penicillin and […] streptomycin (Invitrogen) at 37° C. under a humidified atmosphere and 5% CO2. Inhibitor stocks were prepared in 100% DMSO and screened at […] for percent inhibition values or serially diluted from […] in 10% DMSO for […] determinations. […] of each dilution was added to […] of diluted parasites ([…]) in sterile Greiner 96-well flat white opaque culture plates such that the final DMSO concentration was 0.5%. The 0% inhibition control wells contained 0.5% DMSO while 100% inhibition control wells contained […] thimerosal (Sigma). After compound addition, plates were incubated for 40 hours at 37° C. At the end of the incubation period, […] of CellTiter-GIo™ reagent (Promega Inc., Madison, Wis., USA) was added to each well and plates were placed on an orbital shaker at room temperature for 2 min to induce lysis. After an additional 10 min of incubation without shaking to stabilize the signal, the ATP-bioluminescence of each well was determined using an Analyst HT plate reader (Molecular Devices, Sunnyvale, Calif., USA). Raw values were converted to log 10 and percentage inhibition calculated relative to the controls. IC50 curve fittings were performed with Prism 4 software as above. Pentamidine was used as a comparator in the assay.
By IC50 is commonly meant the concentration that inhibits the measured activity by half. On to `CC(=N)N(C)CCCC1(c2ccc(F)cc2)OCc2cc(C#N)ccc21` (stereo not drawn) [Example 1, N-{3-[5-cyano-1-(4-fluorophenyl)-1,3-dihydro-2-benzofuran-1-yl]propyl}-N-methyl-ethanimidamide], for which the IC50 was 10 µM. In the case of `CN(CCCC1(c2ccc(F)cc2)OCc2cc(C#N)ccc21)C(=N)c1ccccc1` (stereo not drawn) [Example 2, N-{3-[5-cyano-1-(4-fluorophenyl)-1,3-dihydro-2-benzofuran-1-yl]propyl}-N-methyl-phenylmethanimidamide], the half-maximal inhibitory concentration (IC50) was 1.1 µM.

As to `CN(CCCC1(c2ccc(F)cc2)OCc2cc(C#N)ccc21)C1=NCCCC1` (stereo not drawn) [Example 3, 1-(4-fluorophenyl)-1-{3-[methyl(3,4,5,6-tetrahydropyridin-2-yl)amino]propyl}-1,3-dihydro-2-benzo-furan-5-carbonitrile], the half-maximal inhibitory concentration (IC50) worked out at 20 µM.
